How the values were obtained:
Assay type in all cases: in vivo
[1] = test system: velvetleaf (Abutilon theophrash); experiment: Test Example 3: soil surface treatment on upland fields; settings: 500 g/ha active ingredient; soil surface spray; examined after 19 days
Experimental: (§1) Cylindrical plastic pots of 10 cm in diameter and […] in depth were filled with soil, in which the seeds of […] (Ipomoea hederacea var. integriuscula) and velvetleaf (Abutilon theophrash) were sowed. Each of the test compounds listed below was formulated into an emulsifiable concentrate according to Formulation Example 2, which was diluted with water to a prescribed concentration. The dilution was uniformly sprayed over the soil surface in the pots with a sprayer at a volume of 1000 liters per hectare. After the application, the test plants were grown in a greenhouse for 19 days, and the herbicidal activity was examined.

[2] = test system: entireleaf morningglory (Ipomoea hederacea var. integriuscula); experiment: as above; settings: 500 g/ha active ingredient; soil surface spray; examined after 19 days
Experimental: as §1

[3] = test system: barnyardgrass (Echinochloa crus-galli); experiment: Test Example 2: foliar treatment on upland fields; parameters: key: rating; 4–5 = excellent activity, 3 or lower = insufficient; settings: 32 g/ha active ingredient; foliar spray; examined 19 days after application
Description: (§2) The herbicidal activity is excellent when rated at “4” or “5” but insufficient when rated at “3” or lower. The phytotoxicity is no problematic on practical use when rated at “0” or “1” but not allowed when rated at “2” or higher.
(§3) Cylindrical plastic pots of 10 cm in diameter and 10 cm in depth were filled with soil, in which the seeds of barnyardgrass (Echinochloa crus-galli), entireleaf morningglory (Ipomoea hederacea var. integriuscula) and velvetleaf (Abutilon theophrash) were sowed, and the test plants were grown in a greenhouse for 19 days. Each of the test compounds listed below was formulated into an emulsifiable concentrate according to Formulation Example 2, which was diluted with water containing a spreading agent to a prescribed concentration. The dilution was uniformly sprayed over the foliage of the test plants with a sprayer at a volume of 1000 liters per hectare. After the application, the test plants were grown in the greenhouse for 19 days, and the herbicidal activity was examined.

[4] = test system: velvetleaf (Abutilon theophrash); experiment: Test Example 2: foliar treatment on upland fields; parameters: key: rating; 4–5 = excellent activity, 3 or lower = insufficient; settings: 32 g/ha active ingredient; foliar spray; examined 19 days after application
Description: as §2, §3

[5] = test system: entireleaf morningglory (Ipomoea hederacea var. integriuscula); experiment: Test Example 2: foliar treatment on upland fields; parameters: key: rating; 4–5 = excellent activity, 3 or lower = insufficient; settings: 32 g/ha active ingredient; foliar spray; examined 19 days after application
Description: as §2, §3

[6] = test system: velvetleaf (Abutilon theophrash); experiment: Test Example 1: foliar treatment on upland fields; settings: 500 g/ha active ingredient; foliar spray; examined 19 days after application
Experimental: as §3, with “barnyardgrass (Echinochloa crus-galli), entireleaf morningglory” left out

[7] = test system: entireleaf morningglory (Ipomoea hederacea var. integriuscula); experiment: Test Example 1: foliar treatment on upland fields; settings: 500 g/ha active ingredient; foliar spray; examined 19 days after application
Experimental: as §3, with “barnyardgrass (Echinochloa crus-galli), entireleaf morningglory” left out

[8] = test system: pale smartweed (Polygonum lapathifolium); experiment: Test Example 7: soil surface treatment on upland fields; settings: 63 g/ha active ingredient; soil surface spray; examined after 19 days
Description: as §2
(§4) Plastic pots of 25×18 cm^2 in area and 7 cm in depth were filled with soil, in which the seeds of soybean (Glycine max), corn (Zea mays), common lambsquarters (Chenopodium album), slender amaranth (Amaranthus gracilis), and pale smartweed (Polygonum lapathifolium) were sowed. Each of the test compounds listed below was formulated into an emulsifiable concentrate according to Formulation Example 2, which was diluted with water to a prescribed concentration. The dilution was uniformly sprayed over the soil surface in the pots with a sprayer at a volume of 1000 liters per hectare. After the application, the test plants were grown in a greenhouse for 19 days, and the herbicidal activity and phytotoxicity were examined.

[9] = test system: slender amaranth (Amaranthus gracilis); experiment: as above; settings: 63 g/ha active ingredient; soil surface spray; examined after 19 days
Description: as §2, §4

[10] = test system: common lambsquarters (Chenopodium album); experiment: as above; settings: 63 g/ha active ingredient; soil surface spray; examined after 19 days
Description: as §2, §4

[11] = test system: barnyardgrass (Echinochloa oryzicola); experiment: Test Example 4: flooding treatment on paddy fields; settings: application amount of active ingredient 250 g/ha, examined 19 days after application, index 0 to 5
Experimental: Cylindrical plastic pots of 9 cm in diameter and 11 cm in depth were filled with soil, in which the seeds of barnyardgrass (Echinochloa oryzicola) were sowed. These pots were flooded to form a paddy field, and the test plants were grown in a greenhouse for 7 days. Each of the test compounds listed below was formulated into an emulsifiable concentrate according to Formulation Example 2, which was diluted with water to a prescribed concentration. The dilution was applied to the water surface in the pots at a volume of 50 liters per hectare. After the application, the test plants were grown in the greenhouse for 19 days, and the herbicidal activity was examined.

[12] = test system: common chickweed (Stellaria media); experiment: Test Example 6: foliar treatment on upland fields; settings: 63 g/ha active ingredient; foliar spray; 25 days after application
Description: as §2
(§5) Plastic pots of 16×11 cm^2 in are and 7 cm in depth were filled with soil, in which the seeds of wheat (Triticum aestivum), pale smartweed (Polygonum lapathifolium), catchweed bedstraw (Galium aparine), and common chickweed (Stellaria media) were sowed, and the test plants were grown for 29 days. Each of the test compounds listed below was formulated into an emulsifiable concentrate according to Formulation Example 2, which was diluted with water to a prescribed concentration. The dilution was uniformly sprayed over the foliage of the test plants with a sprayer at a volume of 1000 liters per hectare. At this time, the unfavorable weeds and crop plants, although their growth state was different depending upon the weed species, were at the 1- to 4-leaf stage, and the plant height was 5 to 15 cm. After 25 days from the application, the herbicidal activity and phytotoxicity were examined. This test was made in a greenhouse over the entire period.

[13] = test system: pale smartweed (Polygonum lapathifolium); experiment: Test Example 6: foliar treatment on upland fields; settings: 63 g/ha active ingredient; foliar spray; 25 days after application
Description: as §2, §5

[14] = test system: catchweed bedstraw (Galium aparine); experiment: Test Example 6: foliar treatment on upland fields; settings: 63 g/ha active ingredient; foliar spray; 25 days after application
Description: as §2, §5

[15] = test system: common ragweed (Ambrosia artemisiifolia); experiment: Test Example 5: foliar treatment on upland fields; settings: 63 g/ha active ingredient; foliar spray; 18 days after application
Description: as §2
(§6) Plastic pots of 25×18 cm^2 in area and 7 cm in depth were filled with soil, in which the seeds of soybean (Glycine max), corn (Zea mays), entireleaf morningglory (Ipomoea hederacea var. integriuscula), common cocklebur (Xanthium pensylvanicum), common ragweed (Ambrosia artemisiifolia), and common lambsquarters (Chenopodium album) were sowed, and the test plants were grown for 16 days. Each of the test compounds listed below was formulated into an emulsifiable concentrate according to Formulation Example 2, which was diluted with water to a prescribed concentration. The dilution was uniformly sprayed over the foliage of the test plants with a sprayer at a volume of 1000 liters per hectare. At this time, the unfavorable weeds and crop plants, although their growth state was different depending upon the weed species, were at the 1- to 4-leaf stage, and the plant height was 5 to 20 cm. After 18 days from the application, the herbicidal activity and phytotoxicity were examined. This test was made in a greenhouse over the entire period.

[16] = test system: common cocklebur (Xanthium pensylvanicum); experiment: Test Example 5: foliar treatment on upland fields; settings: 63 g/ha active ingredient; foliar spray; 18 days after application
Description: as §2, §6

[17] = test system: common lambsquarters (Chenopodium album); experiment: Test Example 5: foliar treatment on upland fields; settings: 63 g/ha active ingredient; foliar spray; 18 days after application
Description: as §2, §6

[18] = test system: entireleaf morningglory (Ipomoea hederacea var. integriuscula); experiment: Test Example 5: foliar treatment on upland fields; settings: 63 g/ha active ingredient; foliar spray; 18 days after application
Description: as §2, §6

soybean (Glycine max) = experiment: Test Example 5: foliar treatment on upland fields (phytotoxicity); settings: 63 g/ha active ingredient; foliar spray; 18 days after application
Description: as §2, §6

corn (Zea mays) = experiment: as above; settings: 63 g/ha active ingredient; foliar spray; 18 days after application
Description: as §2, §6

Compound	Herbicidal activity Velvetleaf [1]	Herbicidal activity Entireleaf morningglory [2]	Herbicidal activity Barnyardgrass [3]	Herbicidal activity Velvetleaf [4]	Herbicidal activity Entireleaf morningglory [5]	Herbicidal activity Velvetleaf [6]	Herbicidal activity Entireleaf morningglory [7]	Herbicidal activity and phytotoxicity Pale smartweed [8]	Herbicidal activity and phytotoxicity Slender amaranth [9]	Herbicidal activity and phytotoxicity Common lambsquarters [10]	Herbicidal activity Barnyardgrass [11]	Herbicidal activity and phytotoxicity Common chickweed [12]	Herbicidal activity and phytotoxicity Pale smartweed [13]	Herbicidal activity and phytotoxicity Catchweed bedstraw [14]	Herbicidal activity and phytotoxicity Common ragweed [15]	Herbicidal activity and phytotoxicity Common cocklebur [16]	Herbicidal activity and phytotoxicity Common lambsquarters [17]	Herbicidal activity and phytotoxicity Entireleaf morningglory [18]	Herbicidal activity and phytotoxicity Soybean (soybean (Glycine max))	Herbicidal activity and phytotoxicity Corn (corn (Zea mays))
C#CCN1C(=O)COc2ccc(-n3ncc(C(F)(F)F)c(C)c3=O)cc21 [Compound 2-203, 6-(4-Methyl-5-trifluoromethyl-3-pyridazinon-2-yl)-4-propargyl-2H-1,4-benzoxazin-3-one]	5	5	4	5	5	5	5	5	5	5	5	–	–	–	–	–	–	–	–	–
CCOC(=O)c1cc(-n2ncc(C(F)(F)F)c(C)c2=O)c(F)cc1Cl [Compound 1-642, Ethyl 2-chloro-4-fluoro-5-(4-methyl-5-trifluoromethyl-3-pyridazinon-2-yl)benzoate]	5	5	5	5	5	5	5	5	5	5	5	–	–	–	–	–	–	–	–	–
C#CCOc1cc(-n2ncc(C(F)(F)F)c(C)c2=O)c(F)cc1Cl [Compound 1-486, 2-(4-Chloro-2-fluoro-5-propargyloxyphenyl)-4-methyl-5-trifluoromethylpyridazin-3-one]	5	5	4	5	5	5	5	–	–	–	5	5	5	5	–	–	–	–	–	–
CCOC(=O)COc1cc(-n2ncc(C(F)(F)F)c(C)c2=O)c(F)cc1Cl [Compound 1-496, Ethyl 2-chloro-4-fluoro-5-(4-methyl-5-trifluoromethyl-3-pyridazinon-2-yl)phenoxyacetate]	5	5	5	5	5	5	5	–	–	–	5	4	4	5	5	5	5	5	–	–
Pentyl 2-chloro-4-fluoro-5-(4-methyl-5-trifluoromethyl-3-pyridazinon-2-yl) phenoxyacetate [Compound 1-499]	5	5	5	5	5	5	5	–	–	–	5	–	–	–	5	5	4	5	1	1
C#CCN1C(=O)COc2cc(F)c(-n3ncc(C(F)(F)F)cc3=O)cc21 [Compound 2-631, 7-Fluoro-6-(5-trifluoromethyl-3-pyridazinon-2-yl)-4-propargyl-2H-1,4-benzoxazin-3-one]	5	5	5	5	5	5	5	5	5	5	5	–	–	–	–	–	–	–	–	–
